{
  "source": "patent US11065257B2",
  "about": "“Substituted pyrazoloazepin-4-ones and their use as phosphodiesterase inhibitors” (LEO Pharma A/S, priority 2016, dated 2021)",
  "data": [
    {"biological_target": "T1, human PDE4D catalytic domain (Homo sapiens, UniProt Q08499)", "T1 construct": "UniProt no; Q08499 [S380-L740]", "T1 sequence (Q08499 380-740)": "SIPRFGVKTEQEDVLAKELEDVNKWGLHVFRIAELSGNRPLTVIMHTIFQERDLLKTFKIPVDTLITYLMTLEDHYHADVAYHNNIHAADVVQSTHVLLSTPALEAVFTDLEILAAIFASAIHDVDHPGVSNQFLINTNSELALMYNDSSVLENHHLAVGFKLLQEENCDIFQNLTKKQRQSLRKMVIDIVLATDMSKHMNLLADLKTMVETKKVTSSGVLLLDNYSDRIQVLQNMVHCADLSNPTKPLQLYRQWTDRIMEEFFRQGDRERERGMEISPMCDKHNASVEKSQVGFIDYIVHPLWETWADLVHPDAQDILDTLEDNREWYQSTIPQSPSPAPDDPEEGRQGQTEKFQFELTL", "assay": "PDE4 Assay", "type": "biochemical", "conditions": "human PDE4D catalytic domain (S380-L740), TR-FRET with FAM-cAMP; expressed as a range of IC50; read-out: PDE4 Potency Range", "method": "The human PDE4D catalytic domain (UniProt no. Q08499 [S380-L740]) was incubated with a mixture of non-labelled cAMP (cyclic adenosine monophosphate) and fluorescein amidite (FAM) conjugated cAMP and titrated test or reference compound. Following brief incubation the enzymatic reaction was stopped by addition of binding buffer containing nanoparticles with immobilized trivalent metal ions capable of binding 1) AMP phospho groups and 2) terbium (Tb) donor fluorophores. Subsequent excitation of the Tb donor triggers time-resolved FRET to adjacent FAM acceptor molecules resulting in light emission. In the presence of a PDE4 inhibitor, AMP generation was reduced resulting in a lower fluorescence signal. The cAMP phosphodiester is not bound by the detection system.\nThe results were calculated as the molar concentrations resulting in 50% inhibition of the substrate cleavage compared to controls samples, and are expressed as a range of IC50 (nM).", "units": {"IC50": "nM"}, "values": [
      {"compound": "CCc1nn(CCCOC(=O)c2ccc(C)nc2C)c2c1C(=O)NCC1(CCOCC1)C2", "note": "[Example 87, 3-(3-ethyl-4-oxo-spiro[6,8-dihydro-5H-pyrazolo[4,3-c]azepine-7,4′-tetrahydropyran]-1-yl)propyl 2,6-dimethylpyridine-3-carboxylate]", "IC50": "< 100"},
      {"compound": "CCc1nn(CCCOC(=O)C2CCN(C(C)=O)C2)c2c1C(=O)NCC1(CCOCC1)C2", "note": "(stereo not drawn) [Example 93, 3-(3-ethyl-4-oxo-spiro[6,8-dihydro-5H-pyrazolo[4,3-c]azepine-7,4′-tetrahydropyran]-1-yl)propyl 1-acetylpyrrolidine-3-carboxylate]", "IC50": "> 500"},
      {"compound": "CCc1nn(CCOC(=O)Cc2cc(C)on2)c2c1C(=O)NCC1(CCOCC1)C2", "note": "[Example 11, 2-(3-ethyl-4-oxo-spiro[6,8-dihydro-5H-pyrazolo[4,3-c]azepine-7,4′-tetrahydropyran]-1-yl)ethyl 2-(5-methylisoxazol-3-yl)acetate]", "IC50": "> 500"},
      {"compound": "CCc1nn(CCCOC(=O)c2ncc[nH]2)c2c1C(=O)NCC1(CCOCC1)C2", "note": "[Example 19, 3-(3-ethyl-4-oxo-spiro[6,8-dihydro-5H-pyrazolo[4,3-c]azepine-7,4′-tetrahydropyran]-1-yl)propyl 1H-imidazole-2-carboxylate]", "IC50": "> 500"},
      {"compound": "CCc1nn(CCOC(=O)c2nc(C)cs2)c2c1C(=O)NCC1(CCOCC1)C2", "note": "[Example 14, 2-(3-ethyl-4-oxo-spiro[6,8-dihydro-5H-pyrazolo[4,3-c]azepine-7,4′-tetrahydropyran]-1-yl)ethyl 4-methylthiazole-2-carboxylate]", "IC50": "100 to 500"},
      {"compound": "CCc1nn(CCCOC(=O)C2CCCN(C(=O)OC)C2)c2c1C(=O)NCC1(CCOCC1)C2", "note": "(stereo not drawn) [Example 104, O3-[3-(3-ethyl-4-oxo-spiro[6,8-dihydro-5H-pyrazolo[4,3-c]azepine-7,4′-tetrahydropyran]-1-yl)propyl] O1-methyl piperidine-1,3-dicarboxylate]", "IC50": "100 to 500"},
      {"compound": "CCc1nn(CCCOC(=O)c2ccc(C)cn2)c2c1C(=O)NCC1(CCOCC1)C2", "note": "[Example 61, 3-(3-ethyl-4-oxo-spiro[6,8-dihydro-5H-pyrazolo[4,3-c]azepine-7,4′-tetrahydropyran]-1-yl)propyl 5-methylpyridine-2-carboxylate]", "IC50": "100 to 500"},
      {"compound": "CCc1nn(CCOC(=O)c2cocn2)c2c1C(=O)NCC1(CCOCC1)C2", "note": "[Example 2, 2-(3-ethyl-4-oxo-spiro[6,8-dihydro-5H-pyrazolo[4,3-c]azepine-7,4′-tetrahydropyran]-1-yl)ethyl oxazole-4-carboxylate]", "IC50": "> 500"},
      {"compound": "CCc1nn(CCOC(=O)c2coc(C)n2)c2c1C(=O)NCC1(CCOCC1)C2", "note": "[Example 5, 2-(3-ethyl-4-oxo-spiro[6,8-dihydro-5H-pyrazolo[4,3-c]azepine-7,4′-tetrahydropyran]-1-yl)ethyl 2-methyloxazole-4-carboxylate]", "IC50": "> 500"},
      {"compound": "CCc1nn(CCOC(=O)c2cscn2)c2c1C(=O)NCC1(CCOCC1)C2", "note": "[Example 7, 2-(3-ethyl-4-oxo-spiro[6,8-dihydro-5H-pyrazolo[4,3-c]azepine-7,4′-tetrahydropyran]-1-yl)ethyl thiazole-4-carboxylate]", "IC50": "> 500"},
      {"compound": "CCc1nn(CCCOC(=O)c2cn[nH]c2)c2c1C(=O)NCC1(CCOCC1)C2", "note": "[Example 20, 3-(3-ethyl-4-oxo-spiro[6,8-dihydro-5H-pyrazolo[4,3-c]azepine-7,4′-tetrahydropyran]-1-yl)propyl 1H-pyrazole-4-carboxylate]", "IC50": "100 to 500"},
      {"compound": "CCc1nn(CC(C)(C)COC(=O)C2CCOC2)c2c1C(=O)NCC1(CCOCC1)C2", "note": "(stereo not drawn) [Example 110, [3-(3-ethyl-4-oxo-spiro[6,8-dihydro-5H-pyrazolo[4,3-c]azepine-7,4′-tetrahydropyran]-1-yl)-2,2-dimethyl-propyl] tetrahydrofuran-3-carboxylate]", "IC50": "100 to 500"},
      {"compound": "CCc1nn(CCCOC(=O)c2cnon2)c2c1C(=O)NCC1(CCOCC1)C2", "note": "[Example 27, 3-(3-ethyl-4-oxo-spiro[6,8-dihydro-5H-pyrazolo[4,3-c]azepine-7,4′-tetrahydropyran]-1-yl)propyl 1,2,5-oxadiazole-3-carboxylate]", "IC50": "100 to 500"},
      {"compound": "CCc1nn(CCCOC(=O)c2ccns2)c2c1C(=O)NCC1(CCOCC1)C2", "note": "[Example 54, 3-(3-ethyl-4-oxo-spiro[6,8-dihydro-5H-pyrazolo[4,3-c]azepine-7,4′-tetrahydropyran]-1-yl)propyl isothiazole-5-carboxylate]", "IC50": "100 to 500"},
      {"compound": "CCc1nn(CCCOC(=O)c2c[nH]cn2)c2c1C(=O)NCC1(CCOCC1)C2", "note": "[Example 17, 3-(3-ethyl-4-oxo-spiro[6,8-dihydro-5H-pyrazolo[4,3-c]azepine-7,4′-tetrahydropyran]-1-yl)propyl 1H-imidazole-4-carboxylate]", "IC50": "> 500"},
      {"compound": "CCc1nn(CCCOC(=O)c2ocnc2C)c2c1C(=O)NCC1(CCOCC1)C2", "note": "[Example 47, 3-(3-ethyl-4-oxo-spiro[6,8-dihydro-5H-pyrazolo[4,3-c]azepine-7,4′-tetrahydropyran]-1-yl)propyl 4-methyloxazole-5-carboxylate]", "IC50": "100 to 500"},
      {"compound": "CCc1nn(CCCOC(=O)c2cnsc2C)c2c1C(=O)NCC1(CCOCC1)C2", "note": "[Example 79, 3-(3-ethyl-4-oxo-spiro[6,8-dihydro-5H-pyrazolo[4,3-c]azepine-7,4′-tetrahydropyran]-1-yl)propyl 5-methylisothiazole-4-carboxylate]", "IC50": "100 to 500"},
      {"compound": "CCc1nn(CCCOC(=O)c2cc(C)ccn2)c2c1C(=O)NCC1(CCOCC1)C2", "note": "[Example 63, 3-(3-ethyl-4-oxo-spiro[6,8-dihydro-5H-pyrazolo[4,3-c]azepine-7,4′-tetrahydropyran]-1-yl)propyl 4-methylpyridine-2-carboxylate]", "IC50": "> 500"},
      {"compound": "CCc1nn(CCCOC(=O)c2ccno2)c2c1C(=O)NCC1(CCOCC1)C2", "note": "[Example 22, 3-(3-ethyl-4-oxo-spiro[6,8-dihydro-5H-pyrazolo[4,3-c]azepine-7,4′-tetrahydropyran]-1-yl)propyl isoxazole-5-carboxylate]", "IC50": "100 to 500"},
      {"compound": "CCc1nn(CCCOC(=O)C2CCN(C(=O)OC)CC2)c2c1C(=O)NCC1(CCOCC1)C2", "note": "[Example 105, O4-[3-(3-ethyl-4-oxo-spiro[6,8-dihydro-5H-pyrazolo[4,3-c]azepine-7,4′-tetrahydropyran]-1-yl)propyl] O1-methyl piperidine-1,4-dicarboxylate]", "IC50": "100 to 500"},
      {"compound": "CCc1nn(CCCOC(=O)C2CN(C(C)=O)C2)c2c1C(=O)NCC1(CCOCC1)C2", "note": "[Example 77, 3-(3-ethyl-4-oxo-spiro[6,8-dihydro-5H-pyrazolo[4,3-c]azepine-7,4′-tetrahydropyran]-1-yl)propyl 1-acetylazetidine-3-carboxylate]", "IC50": "> 500"},
      {"compound": "CCc1nn(CCCOC(=O)c2cnc(C)o2)c2c1C(=O)NCC1(CCOCC1)C2", "note": "[Example 48, 3-(3-ethyl-4-oxo-spiro[6,8-dihydro-5H-pyrazolo[4,3-c]azepine-7,4′-tetrahydropyran]-1-yl)propyl 2-methyloxazole-5-carboxylate]", "IC50": "100 to 500"},
      {"compound": "CCc1nn(CCCOC(=O)c2ccc3ncn(C)c3c2)c2c1C(=O)NCC1(CCOCC1)C2", "note": "[Example 101, 3-(3-ethyl-4-oxo-spiro[6,8-dihydro-5H-pyrazolo[4,3-c]azepine-7,4′-tetrahydropyran]-1-yl)propyl 3-methylbenzimidazole-5-carboxylate]", "IC50": "< 100"},
      {"compound": "CCc1nn(CCCOC(=O)c2ccnn2C)c2c1C(=O)NCC1(CCOCC1)C2", "note": "[Example 35, 3-(3-ethyl-4-oxo-spiro[6,8-dihydro-5H-pyrazolo[4,3-c]azepine-7,4′-tetrahydropyran]-1-yl)propyl 2-methylpyrazole-3-carboxylate]", "IC50": "100 to 500"},
      {"compound": "CCc1nn(CCOC(=O)Cc2csc(C)n2)c2c1C(=O)NCC1(CCOCC1)C2", "note": "[Example 15, 2-(3-ethyl-4-oxo-spiro[6,8-dihydro-5H-pyrazolo[4,3-c]azepine-7,4′-tetrahydropyran]-1-yl)ethyl 2-(2-methylthiazol-4-yl)acetate]", "IC50": "> 500"},
      {"compound": "CCc1nn(CCCOC(=O)c2cc(C)n(C)n2)c2c1C(=O)NCC1(CCOCC1)C2", "note": "[Example 72, 3-(3-ethyl-4-oxo-spiro[6,8-dihydro-5H-pyrazolo[4,3-c]azepine-7,4′-tetrahydropyran]-1-yl)propyl 1,5-dimethylpyrazole-3-carboxylate]", "IC50": "> 500"},
      {"compound": "CCc1nn(CCCOC(=O)c2csnn2)c2c1C(=O)NCC1(CCOCC1)C2", "note": "[Example 57, 3-(3-ethyl-4-oxo-spiro[6,8-dihydro-5H-pyrazolo[4,3-c]azepine-7,4′-tetrahydropyran]-1-yl)propyl thiadiazole-4-carboxylate]", "IC50": "100 to 500"},
      {"compound": "CCc1nn(CCOC(=O)c2cc(C)ns2)c2c1C(=O)NCC1(CCOCC1)C2", "note": "[Example 13, 2-(3-ethyl-4-oxo-spiro[6,8-dihydro-5H-pyrazolo[4,3-c]azepine-7,4′-tetrahydropyran]-1-yl)ethyl 3-methylisothiazole-5-carboxylate]", "IC50": "100 to 500"},
      {"compound": "CCc1nn(CCCOC(=O)c2cnco2)c2c1C(=O)NCC1(CCOCC1)C2", "note": "[Example 24, 3-(3-ethyl-4-oxo-spiro[6,8-dihydro-5H-pyrazolo[4,3-c]azepine-7,4′-tetrahydropyran]-1-yl)propyl oxazole-5-carboxylate]", "IC50": "> 500"},
      {"compound": "CCc1nn(CCCOC(=O)c2cc(C)nn2C)c2c1C(=O)NCC1(CCOCC1)C2", "note": "[Example 71, 3-(3-ethyl-4-oxo-spiro[6,8-dihydro-5H-pyrazolo[4,3-c]azepine-7,4′-tetrahydropyran]-1-yl)propyl 2,5-dimethylpyrazole-3-carboxylate]", "IC50": "100 to 500"}
    ]}
  ]
}
